# Reference: patent US20040058983A1, “Plan-derived and synthetic phenolic compounds and plant extracts, effective in the treatment and prevention of chlamydial infections” (priority 2000, published 2004)
# Read-outs that look alike come from different tables or passages of the source.
# Columns and labels:
# Ca^2+ intake in the cell = experiment: Effect of the compounds on the calcium influx (Ca2+ intake) to the cell; type: cell-based; conditions: compound 20 μg/ml; − = decrease, + = increase
# Source text: (§1) In the following Table I some of the preferred plant-derived phenolic compounds according to the present invention, the effect of the compounds on the calcium influx to the cell, the antioxidant effect as well as the chemical structure of the compounds are presented.
# [1] = Antioxidant effect, IC50 against DPPH; type: biochemical; conditions: read-out: IC50 [moles L^−1] against DPPH′
# Source text: as §1
# [2] = tested on: C. pneumoniae K7 strain (clinical isolate); experiment: Direct anti-chlamydial effect (inhibition of formation of inclusions), HL host cells; type: cell-based; conditions: for inhibition at 0.5 µM / inhibition at 50 µM: Chlamydia pneumoniae, read-out: Inhibition % of the DMSO control; for Inhibition of the growth of C. pneumoniae (in words): concentration of 0.5-50 μg
# Source text: The Direct Anti-Chlamydial Effect of Plant-Derived Phenolic Compounds (As Inhibition of Formation of Inclusions)/C. pneumoniae K7 Strain (Clinical Isolate)
# (§2) The cultivated HL cells are infected with C. pneumoniae EB's. The EB's which have invaded the cell are changed into the metabolically active reticulate body (RB) which are dividing by binary fission in the endosome vacuole or inclusion.
# (§3) After a certain time (about 72 hr) the C. pneumoniae RB's are condensing back into EB's, after which the inclusions are broken, the host cells are broken and the EB's are liberated. In this method the intention is to verify the inclusions before the breaking up of the host cells.
# (§4) As the host cell of C. pneumoniae in in vitro conditions HL cells are used. As the host cells of C. trachomatis in in vitro conditions McCoy cells often are used.
# (§5) On the day preceding the infection the host cells are inoculated on a 24-well plate: the cells are harvested by trypsinisation, they are suspended in ca. 5 ml of the nutrition liquid and counted in a Burker's chamber. Each well are seeded using a concentration of 250000-400000 cells/well for cultivation. Before the addition of the cells to the well is if necessary round cover glass (diameter 13 mm) put for staining. Nutrition liquid is added so that the volume is 1 ml/well. On the following day the cells are infected with the desired bacterium.
# (§6) Solution to be used in the infection and containing chlamydiae particles is mixed throughout. The old nutrition liquid is aspirated away. By the infection the inoculum which has been stored at −70° C. is diluted to an IFU concentration of ca. 10^3 so that the volume of the solution is at least 200 μl/well on a 24-well plate. The cells are infected by centrifuging at 1600 rpm (550×g)/1 hr. The nutrition medium is aspirated away and changed to a maintenance medium containing cyclohexamide and also containing the studied compound (DMSO concentration 0.2%), 1 ml/well. The cells are incubated in a 5% CO2 atmosphere at +35° C. The cells infected with C. pneumoniae are incubated for 3 days. After 2-3 days the maintenance medium is removed and the cells washed with 1×1 ml of PBS. To the wells 200 μl of SPG are added for further infection, harvested with a pipette tip and transferred into tubes. This is used for infecting new cells in the same way as above to test the inhibition of infectivity (chlamydiasidic effect).
# (§7) The nutrition medium, which is above the cover glass left for staining, is aspirated away. The infected cells are fixed on the cover glass with methanol for 10 min. The cover glass is removed from the well and -transferred onto a suitable fluorescein-conjugated monoclonal antibody on Parafilm in a moist chamber with the cell-containing side down. The cover glass is incubated for 30 min at +37° C. and washed twice with PBS and once with water. Finally it is dried. The cover glass is put with the cell-containing side down on an object glass containing a fixative (e.g. Mounting medium). When viewed under the fluorescent microscope, cell culture specimens infacted with chlamydiae show a characteristic apple-green fluorescence of inclusions against a red counterstained background.
# C. pneumoniae [3] = experiment: Inhibition of the infectivity (chlamydiasidic effect), re-infection of new cells; type: cell-based; conditions: for inhibition at 0.5 µM / inhibition at 50 µM: Chlamydia pneumoniae
# Protocol: Inhibition of the Infectivity/C. pneumoniae
# as §6, §7
# C. trachomatis = experiment: Direct anti-chlamydial effect on C. trachomatis, cultivation in McCoy cells; type: cell-based; conditions: for inhibition at 0.5 µM / inhibition at 50 µM: Chlamydia trachomatis; for Effect on C. trachomatis (in words): pretreated host cells
# Protocol: C. trachomatis, cultivation in McCoy cells. The test procedure otherwise the same as with C. pneumoniae.
# as §4, §5, §6, §7
# HL cells = experiment: Toxicity towards the host cells, Trypan blue staining, no infection; type: cell-based, human
# Protocol: The determination was performed as in the previous tests but without any infection. The viability was determined with Trypan blue staining.
# C. pneumoniae [4] = experiment: Direct anti-chlamydial effect of compounds and mixtures on C. pneumoniae (Example 5); type: cell-based; conditions: 50 μM; for inhibition at 50 µM: Chlamydia pneumoniae, read-out: Inhibition %
# Protocol: Direct Anti-Chlamydial Effect of Plant-Derived Phenolic Compounds, Certain Synthetic Compounds and Mixtures on C. pneumoniae
# The concentration used was 50 μM.
# as §2, §3, §5, §6, §7
# [5] = tested on: C. pneumoniae K7 strain (clinical isolate); experiment: Direct anti-chlamydial effect (inhibition of formation of inclusions), HL host cells; type: cell-based; conditions: for inhibition at 0.5 µM / inhibition at 50 µM: Chlamydia pneumoniae, read-out: Inhibition % of the DMSO control (pre-treated)
# [6] = 0.5 μM, host cells pre-treated 1 day, read-out: Inhibition % of the DMSO control (pre-treated)
# [7] = 0.5 μM, read-out: Inhibition % of the DMSO control
# [8] = 50 μM, host cells pre-treated 1 day, read-out: Inhibition % of the DMSO control (pre-treated)
# [9] = 50 μM, read-out: Inhibition % of the DMSO control
# [10] = 0.5 μM, McCoy cells pre-treated 1 day, read-out: Inhibition % of the DMSO control (pre-treated)
# [11] = 0.5 μM, McCoy cells, read-out: Inhibition % of the DMSO control
# [12] = 50 μM, McCoy cells pre-treated 1 day, read-out: Inhibition % of the DMSO control (pre-treated)
# [13] = 50 μM, McCoy cells, read-out: Inhibition % of the DMSO control
# [14] = 0.5 μM, formation of inclusions
# [15] = 0.5 μM, host cells pre-treated 1 day
# [16] = 50 μM, host cells pre-treated 1 day
# [17] = 0.5 μM, McCoy cells pre-treated 1 day
# [18] = 50 μM, McCoy cells pre-treated 1 day
# [19] = 0.5 μM, host cells incubated 1 day with compound before infection
# [20] = 50 μM, host cells incubated 1 day with compound before infection
Structure (SMILES),inhibition at 20 µg/mL (Ca^2+ intake in the cell) [%],IC50 [1] [µM],Inhibition of the growth of C. pneumoniae (in words) [2],inhibition at 0.5 µM (C. pneumoniae [3]; [6]) [%],inhibition at 0.5 µM (C. pneumoniae [3]; [7]) [%],inhibition at 50 µM (C. pneumoniae [3]; [8]) [%],inhibition at 50 µM (C. pneumoniae [3]; [9]) [%],inhibition at 0.5 µM (C. trachomatis; [10]) [%],inhibition at 0.5 µM (C. trachomatis; [11]) [%],Toxicity test HL-C (HL cells; 0.005 μM) [%],Toxicity test HL-C (pre-treated) (HL cells; 0.005 μM) [%],Toxicity test HL-C (HL cells; 0.05 μM) [%],Toxicity test HL-C (pre-treated) (HL cells; 0.05 μM) [%],Toxicity test HL-C (HL cells; 0.5 μM) [%],Toxicity test HL-C (pre-treated) (HL cells; 0.5 μM) [%],Toxicity test HL-C (HL cells; 5 μM) [%],Toxicity test HL-C (pre-treated) (HL cells; 5 μM) [%],Toxicity test HL-C (HL cells; 50 μM) [%],Toxicity test HL-C (pre-treated) (HL cells; 50 μM) [%],Effect on C. trachomatis (in words) (C. trachomatis),other results
CCCCCCCCOC(=O)c1cc(O)c(O)c(O)c1 [Octyl gallate],92.2,17,inhibited the growth,42,59,100,100,0,0,8.0,7.0,7.4,7.1,7.9,5.0,8.8,8.5,16.4,14.8,–,inhibition at 0.5 µM [2]: 82%; inhibition at 50 µM [2]: 100%; inhibition at 50 µM (C. trachomatis; [12]): 88%; inhibition at 50 µM (C. trachomatis; [13]): 14%; inhibition at 50 µM (C. pneumoniae [4]): 100%; inhibition at 0.5 µM [5]: 62%; inhibition at 50 µM [5]: 100%
COc1cc(O)c2c(=O)c(O)c(-c3ccc(O)c(O)c3)oc2c1 [Rhamnetin],–,12.1,inhibited the growth,–,–,–,–,–,–,10.9,6.6,9.5,7.6,10.0,10.6,9.6,8.0,15.7,16.9,particularly effective,"Effect on Ca^2+ intake [%] (Ca^2+ intake in the cell): +6.63%; Inhibition % of the DMSO control [2, 14]: 73%; Inhibition % of the DMSO control ([2]; 50 μM, formation of inclusions): 99%; Inhibition % of the DMSO control (C. pneumoniae [3]; 0.5 μM): 100%; Inhibition % of the DMSO control (pre-treated) (C. pneumoniae [3]; [15]): 75%; Inhibition % of the DMSO control (C. pneumoniae [3]; 50 μM): 100%; Inhibition % of the DMSO control (pre-treated) (C. pneumoniae [3]; [16]): 67%; Inhibition % of the DMSO control (C. trachomatis; 0.5 μM, McCoy cells): 0%; Inhibition % of the DMSO control (pre-treated) (C. trachomatis; [17]): 17%; Inhibition % of the DMSO control (C. trachomatis; 50 μM, McCoy cells): 0%; Inhibition % of the DMSO control (pre-treated) (C. trachomatis; [18]): 100%; Inhibition % (C. pneumoniae [4]): 100%; Inhibition % of the DMSO control (pre-treated) [5, 19]: 50%; Inhibition % of the DMSO control (pre-treated) [5, 20]: 59%"
O=c1c(O)c(-c2ccc(O)cc2O)oc2cc(O)cc(O)c12 [Morin],–,23.9,inhibited the growth,–,–,–,–,–,–,8.3,14.4,9.0,8.1,8.4,6.4,8.3,12.7,11.2,9.7,particularly effective,"Effect on Ca^2+ intake [%] (Ca^2+ intake in the cell): +48.0%; Inhibition % of the DMSO control [2, 14]: 80%; Inhibition % of the DMSO control ([2]; 50 μM, formation of inclusions): 99%; Inhibition % of the DMSO control (C. pneumoniae [3]; 0.5 μM): 81%; Inhibition % of the DMSO control (pre-treated) (C. pneumoniae [3]; [15]): 53%; Inhibition % of the DMSO control (C. pneumoniae [3]; 50 μM): 94%; Inhibition % of the DMSO control (pre-treated) (C. pneumoniae [3]; [16]): 76%; Inhibition % of the DMSO control (C. trachomatis; 0.5 μM, McCoy cells): 0%; Inhibition % of the DMSO control (pre-treated) (C. trachomatis; [17]): 100%; Inhibition % of the DMSO control (C. trachomatis; 50 μM, McCoy cells): 0%; Inhibition % of the DMSO control (pre-treated) (C. trachomatis; [18]): 100%; Inhibition % (C. pneumoniae [4]): 100%; Inhibition % of the DMSO control (pre-treated) [5, 19]: 62%; Inhibition % of the DMSO control (pre-treated) [5, 20]: 96%"
O=c1c(O)c(-c2ccc(O)c(O)c2)oc2cc(O)cc(O)c12 [Quercetin],-54.1,10.7,inhibited the growth,0,58,0,76,20,0,7.4,7.9,11.7,7.2,7.0,3.3,9.2,8.1,10.5,10.5,particularly effective,"inhibition at 0.5 µM [2, 14]: 68%; inhibition at 50 µM ([2]; 50 μM, formation of inclusions): 90%; inhibition at 50 µM (C. trachomatis; [12]): 100%; inhibition at 50 µM (C. trachomatis; [13]): 0%; inhibition at 50 µM (C. pneumoniae [4]): 90%; inhibition at 0.5 µM [5, 19]: 77%; inhibition at 50 µM [5, 20]: 90%"
